Assay results from PubChem BioAssay (NCI).
Values joined by “and” are separate entries in the source; they are usually repeats but may differ in a detail not shown here. Identical values can stand only once.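 Results reflect a 48-hour exposure of cells in 96-well plates to compound at five concentrations. GI50 = concentration required for 50% inhibition of growth. At the TGI there is no net growth.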

Assays:
Experiment in all cases: inhibition of tumour cell growth, NCI panel, 48 h
[1] = tested on: KM12 colon
[2] = tested on: 786-0 renal
[3] = tested on: M14 melanoma
[4] = tested on: HOP-62 NSCLC
[5] = tested on: TK-10 renal
[6] = tested on: MCF7 breast
[7] = tested on: NCI/ADR-RES ovarian
[8] = tested on: SW-620 colon
[9] = tested on: NCI-H23 lung
[10] = tested on: SF-295 CNS

Row | SMILES | GI50 [1] [µM] | TGI [1] [µM] | GI50 [2] [µM] | TGI [2] [µM] | GI50 [3] [µM] | TGI [3] [µM] | GI50 [4] [µM] | TGI [4] [µM] | GI50 [5] [µM] | TGI [5] [µM] | GI50 [6] [µM] | TGI [6] [µM] | GI50 [7] [µM] | TGI [7] [µM] | GI50 [8] [µM] | TGI [8] [µM] | GI50 [9] [µM] | TGI [9] [µM] | GI50 [10] | TGI [10] [µM]
1 | CO/N=C(\COc1ccc2c(c1)[nH]c1ccccc12)c1ccc(F)cc1 | > 100 | > 100 | 16.8 | > 100 | > 100 | > 100 | 6.44 | 26.7 | 25.9 | > 100 | > 100 | > 100 | 51.8 | > 100 | > 100 | > 100 | > 100 | > 100 | 30.1 µM | > 100
2 | CCCN(CCS(C)(=O)=O)Cc1ccc(-c2ccc3ncnc(Nc4ccc(OCc5cccc(F)c5)c(Cl)c4)c3c2)o1 | > 25 | > 25 | > 25 | > 25 | > 25 | > 25 | > 25 | > 25 | 0.175 | > 25 | > 20.2 | > 25 | 12 | > 25 | > 25 | > 25 | > 25 | > 25 | > 25 µM | > 25
3 | CCOc1ccccc1C(=O)N1CCN(c2cc(Cl)cc(Cl)c2)CC1 | 0.0361 | 13.6 | 0.0624 | 14.8 | 0.0293 | 1.72 | 0.0416 | 15.8 | 9.16 | 24 | 0.0321 | 12.2 | 0.0231 | 5.64 | 0.0415 | 15.8 | 0.0491 | 9.46 | 0.0252 µM | 0.779
4 | c1cnn2ncc(-c3ccnc(NCCCN4CCOCC4)n3)c2c1 | 6.85 | > 21.4 | 8.63 | > 25 | 8.63 | > 25 | 5.76 | > 16.6 | 6.67 | > 23.2 | 5.97 | > 19 | 6.78 | > 25 | 6.66 | > 25 | 7.87 | > 25 | 5.81 µM | > 20.4
5 | NC(=O)c1csc(C2OC(CO)C(O)C2O)n1 (centres undefined) | 70.8 | 6070 | 15.5 | 3460 | 10.2 | 5650 | 44.7 | 3110 | > 74.5 | > 10000 | 76.3 | 7340 | 47.4 | 3010 | 30.6 | 5900 | 52.3 | 5250 | > 43.9 µM and 13.6 µM | > 8180
6 | O=S(=O)(c1ccc(Cl)cc1)C(Cl)(Cl)Cl | 3.27 | 13.9 | 0.968 | 18.1 | 1.63 | 4.32 | 8.12 | > 49.5 | 9.56 | > 75.1 | 2.72 | > 100 | 1.57 | > 24.5 | 2.58 | 11.7 | 2.69 | 17.7 | 5.3 µM | 23
7 | CN1CCN(C(=O)c2cc(-c3ccc4ncnc(N5CCc6cc(F)c(Cl)cc65)c4c3)cnc2N)CC1 | 0.312 | 1.83 | 0.22 | 1.73 | 0.338 | 4.75 | 0.244 | 4.46 | 0.178 | 1.45 | 0.0992 | 1.89 | 0.723 | 10.2 | 0.315 | 1.82 | 0.31 | 5.66 | 0.288 µM | 1.84
8 | COc1ccc(-c2cc(-c3ccc(C)cc3)nc3nc(=S)[nH]c(N)c23)cc1 | 16.2 | 36 | 22.4 | 52.6 | 19.1 | 37.4 | 18.8 | 40.6 | 22.8 | 57.5 | 15.8 | 69.4 | 32.2 | > 100 | 17.9 | 33.9 | 21.9 | 60.2 | 15.9 µM | 34.9
9 | O=c1[nH]c(=O)n(C2CC(O)C(COP(=O)(OCc3ccc([N+](=O)[O-])o3)N(CCCCCl)CC(O)CO)O2)cc1F (centres undefined) | 1.87 | > 100 | 0.624 | > 100 | 0.365 | 2.23 | 0.412 | > 26.2 | 0.326 | > 87.7 | < 0.01 | > 100 | 0.781 | > 100 | 0.0447 | > 100 | 2.79 | > 100 | 0.295 µM | > 25.1
10 | COc1ccc2c(c1)N(CCO)C1=C(C(=O)OC1)C2c1cccc(F)c1 (centres undefined) | 0.255 | > 50 | 0.644 | > 50 | 0.285 | > 50 |  | > 50 | 10.3 | > 50 | 0.202 | > 50 | 0.297 | > 21.4 | 0.236 | > 50 | 1.8 | > 50 | 0.196 µM | > 50
11 | NC(CSC1c2ccccc2-c2ccccc21)C(=O)O (centres undefined) |  | > 100 |  | > 100 |  | > 100 |  | > 100 |  | > 100 |  | > 100 |  | > 100 |  | > 100 |  | > 100 |  | > 100
12 | O=C1OC(=O)C(=C\c2ccc3c(c2)OCO3)/C1=C/c1ccc2c(c1)OCO2 |  | > 100 |  | > 100 |  | > 100 |  | > 100 |  | > 100 |  | > 100 |  | > 100 |  | > 100 |  | > 100 |  | > 100
13 | O=C(O)CN1CCN(CC(=O)O)CC(=O)[O][Hg][O]C(=O)C1 | > 100 | > 100 | 17.1 | 32.2 | 16.4 | 31 | 25.1 | > 66.2 | 16 | 29.5 | 20.3 | 45.1 | 30.5 | > 81.3 | 19.6 | 52.7 | 21.2 | 47.2 | > 100 µM | > 100
